Reference: patent US10450337B2, “Pharmaceutical compounds” (Rafael Pharmaceuticals, Inc., priority 2014, dated 2019)

Key:
Type in all cases: cell-based
[1] = test system: BXPC3 human pancreatic cancer cells; experiment: Cell kill screening, CellTiter Glo viability assay, BXPC3; details: 24 hours treatment, 0.5% serum and 0.05% DMSO, relative to untreated control; for viability at 50 µM: BXPC-3, 50 μM, read-out: % avg live cells @ 50 μM (% Viable Cells Remaining); for viability at 100 µM: BXPC-3, 100 μM, read-out: % avg live cells @ 100 μM (% Viable Cells Remaining)
Text: (§1) The objective of this investigation was to assess the in vitro cell killing activities of analogs of lipoic acid in BXPC3 human pancreatic, 11460 non small lung carcinoma, and SF539 human gliosarcoma cancer cells.
(§2) Three human tumor cell types, BXPC3 human pancreatic cancer, H460 non small lung carcinoma, and SF539 human gliosarcoma, were used in this investigation. The BXPC3 and H460 cells were originally obtained from American Type Cell Culture (ATCC). The SF539 cells were originally obtained from the NCI AIDS and Cancer Specimen Bank (ACSB). All tumor cells were maintained at 37° C. in a humidified 5% CO2 atmosphere in T75 tissue culture flasks containing 20 mL of Roswell Park Memorial Institute (RPMI) 1640 containing 2 mM L-glutamine, 10% FBS and 1% penicillin and streptomycin (100 IU/mL penicillin and 100 μg/mL streptomycin). The tumor cells were split at a ratio of 1:5 every 4-5 days by trypsinization and resuspended in fresh medium in a new flask. Cells were harvested for experiments at 70-90% confluency.
(§3) Stock solutions of each analog were prepared at a concentration of 200 and 100 mM in DMSO. Five μL of this solution was diluted in 10.0 mL of 0.5% serum containing RPMI media to give the desired 100 μM and 50 μM solutions in 0.05% DMSO.
(§4) The cancer cells were seeded at 4000 cells/well for H460 cells and 6000 cells/well for BXPC3 and SF 539 cells and incubated 24 hours. The killing activity of analogs was assayed at 50 μM and 100 μM concentrations. The tumor cells were treated for 24 hours with the test article, and after 24 hours of treatment the number of viable tumor cells was determined using the CTG assay.
(§5) The number of cells targeted for the study is 4×10^3 per well for H460 cells and 6×10^3 per well for BXPC3 and SF539 cells in 100 μL of medium. The actual number of cells were counted and seeded in the wells of a 96 well-plate. The cells were incubated for approximately 24 hours before addition of test article.
(§6) The media in the plate was removed by aspiration, and 100 μL of the test article at a final concentration of 50 μM or 100 μM was added to the cells. After exposure to the test articles for 24 hours, the number of viable cells in each well was determined and the percent of viable cells relative to control (in the absence of test article) were calculated. Additionally, a set of wells was treated with cell culture medium in the absence of cells to obtain a value for background luminescence. A separate set of cells was seeded at the same time in a clear 96-well plate and observed under the microscope at 24 hours, following addition of the test article to estimate the amount of cells present after treatment.
(§7) The number of viable cells was determined by using the CTG assay. Specifically, reagents were mixed and allowed to come to room temperature according to instructions from Promega, Inc. (Madison, Wis.). Cell plates were removed from the cell culture incubator and left on the bench for thirty minutes until they reached room temperature. 100 μL per well of CTG reagent was added with the 12-channel Eppendorf pipettor. The cells were lysed by shaking the plate for two minutes in a shaker. The cells were kept in room temperature for ten minutes to stabilize the luminescent signal. The luminescence was measured using the FLUOstar OPTIMA plate reader (BMG Labtech, Inc., Durham, N.C.).
(§8) Data from luminescence readings was copied onto EXCEL spreadsheets, and cell growth relative to untreated cells was calculated, using the following equation: […]

[2] = test system: SF539 human gliosarcoma cells; experiment: Cell kill screening, CellTiter Glo viability assay, SF539; details: 24 hours treatment, 0.5% serum and 0.05% DMSO, relative to untreated control; for viability at 50 µM: SF-539, 50 μM, read-out: % avg live cells @ 50 μM (% Viable Cells Remaining); for viability at 100 µM: SF-539, 100 μM, read-out: % avg live cells @ 100 μM (% Viable Cells Remaining)
Text: as §1, §2, §3, §4, §5, §6, §7, §8

[3] = test system: H460 non small lung carcinoma cells; experiment: Cell kill screening, CellTiter Glo viability assay, H460; details: Homo sapiens, 24 hours treatment, 0.5% serum and 0.05% DMSO, relative to untreated control; for viability at 50 µM: NCI-H460, 50 μM, read-out: % avg live cells @ 50 μM (% Viable Cells Remaining); for viability at 100 µM: NCI-H460, 100 μM, read-out: % avg live cells @ 100 μM (% Viable Cells Remaining)
Text: as §1, §2, §3, §4, §5, §6, §7, §8

Structure (SMILES) | viability at 50 µM [1] [%] | viability at 100 µM [1] [%] | viability at 50 µM [2] [%] | viability at 100 µM [2] [%] | viability at 50 µM [3] [%] | viability at 100 µM [3] [%]
O=CCCCCC(CCSCc1ccccc1)SCc1ccccc1 (stereo not shown) [A] | 37.6 | 26.3 | 29.4 | 28.1 | 44.9 | 29.9
O=C(O)CCCCCCC(CCSCc1ccccc1)SCc1ccccc1 (stereo not shown) [C] | 2 | 6 | 5 | 20 | 3 | 15
O=C(O)/C=C/CCCCC(CCSCc1ccccc1)SCc1ccccc1 (stereo not shown) [D] | – | – | 9.9 | 0 | 15.4 | 0
O=C(O)CCCCC(CCNC(=O)OCc1ccccc1)NC(=O)OCc1ccccc1 (stereo not shown) [G] | 82 | 72.6 | 97.3 | 79.6 | 89.1 | 87
O=C(CCCCC(CCSCc1ccccc1)SCc1ccccc1)OCc1ccccc1 (stereo not shown) [H] | 92 | 84 | 97 | 95 | 110 | 101
NC(=O)CCCCC(CCSCc1ccccc1)SCc1ccccc1 (stereo not shown) [I] | 1 | 0 | 1 | 1 | 1 | 0
O=C(CCCCC(CCSCc1ccccc1)SCc1ccccc1)N1CCOCC1 (stereo not shown) [J] | 8.2 | 4.6 | 38.2 | 15.9 | 37.2 | 15.8
O=C(CCCCC(CCSCc1ccccc1)SCc1ccccc1)NCCN1CCOCC1 (stereo not shown) [K] | 1 | 0 | 0 | 0 | 0 | 0
CCN(CC)C(=O)CCCCC(CCSCc1ccccc1)SCc1ccccc1 (stereo not shown) [L] | 28 | 14 | 58 | 32 | 58 | 18
CCN(CC)CCNC(=O)CCCCC(CCSCc1ccccc1)SCc1ccccc1 (stereo not shown) [M] | 10.8 | 1.4 | 3.1 | 1.9 | 20.5 | 8.5
O=C(CCCCC(CCSCc1ccccc1)SCc1ccccc1)NCCS(=O)(=O)O (stereo not shown) [N] | 126 | 95 | 104 | 75 | 119 | 89
